# Where a chain is given by its changes, count along the chain named. “And” between values parts separate entries of the source, which are not always exact repeats. Equal entries are not always repeated. Where two headings read alike, the source gives them in different places.
# Columns and labels:
# GluE1αA S642N [1] = target: T1, GluE1αA S642N (Trichoplax adhaerens, UniProt B3SAW0, S167N); type: cell-based; details: for normalized conductance (G-V, Figure 5g), Avg: Na vs Na; for I-V current, Na vs Na, Avg of recordings: Figure 5b
# T1 sequence (B3SAW0 1-341 S167N): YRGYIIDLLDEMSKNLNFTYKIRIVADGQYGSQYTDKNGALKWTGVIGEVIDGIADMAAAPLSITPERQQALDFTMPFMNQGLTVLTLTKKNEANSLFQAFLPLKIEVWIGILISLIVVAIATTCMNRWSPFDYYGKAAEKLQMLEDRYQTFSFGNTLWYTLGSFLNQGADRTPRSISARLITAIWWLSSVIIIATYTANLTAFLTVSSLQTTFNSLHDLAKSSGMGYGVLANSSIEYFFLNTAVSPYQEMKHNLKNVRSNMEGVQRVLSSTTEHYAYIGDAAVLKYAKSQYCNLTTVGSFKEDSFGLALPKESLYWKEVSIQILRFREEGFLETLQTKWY
# GluE1αA S642Q [2] = target: T2, GluE1αA S642Q (Trichoplax adhaerens, UniProt B3SAW0, S167Q); type: cell-based; details: […]; for normalized conductance (G-V, Figure 5g), Avg: Na vs Na; for I-V current, Na vs Na, Avg of recordings: Figure 5b
# T2 sequence (B3SAW0 1-341 S167Q): T1 sequence (B3SAW0 1-341 S167N) with N167Q
# GluE1αA S642N [3] = target: T1, GluE1αA S642N
# Description: (§1) To further elucidate the nature of internal polyamine block in GluE1αA, we performed outside-out membrane patch clamp experiments in wildtype and mutant channels. […] Current-voltage (I-V) relationships were converted to conductance-voltage (G-V) plots and fit with a single permeant blocker model to estimate both the dissociation constant for Spm at 0 mV (Kd(0mV)) and the voltage dependency of block, as previously described[46],[47].
# (§2) HEK-293T/17 cells (ATCC) were maintained in MEM supplemented with GlutaMAX and 10% fetal bovine serum (FBS) at 37 °C and 5% CO2. […] Transient transfections were carried out 48 h post-plating using the calcium phosphate precipitation method. After 6–8 hours, cells were washed twice with PBS and maintained in fresh medium. Cells transfected with mammalian GluA2 cDNA (plasmid vector described above) were returned to an incubator at 37 °C for 24–48 hours and cells transfected with Epsilon GluE1αA were incubated at 28 °C for 48–72 hours. In cells co-transfected with TARP-γ2, 30 μM NBQX was included in the medium to minimize AMPAR/auxiliary-induced cytotoxicity. All constructs were co-transfected with a plasmid encoding enhanced green fluorescent protein (eGFP) to identify transfected cells. Electrophysiology responses were recorded from outside-out patches excised from transfected cells. Recording pipettes were composed of borosilicate glass (3 to 6 megaohm, King Precision Glass) coated with dental wax to reduce electrical noise. All recordings were performed using Axopatch 200B amplifier (Molecular Devices, LLC). Current records were filtered at 5 or 10 kHz and sampled at 25–50 kHz. Series resistance (3 to 12 megaohms) was compensated by 95%. Recordings were performed at a range of holding potentials from −100 mV to 100 mV to study polyamine block. Data was acquired using pClamp9 software (Molecular Devices, LLC). All experiments were performed at room temperature. All chemicals were purchased from Sigma-Aldrich, unless otherwise indicated. External solution contained (in mM): 150 NaCl, 5 HEPES, 0.1 CaCl2, 0.1 MgCl, and […], pH 7.3–7.4. […] The osmotic pressure of all solutions was adjusted to 295 to 300 mOsm with sucrose. […] Stocks were thawed on the day of the experiment and used to prepared agonist-containing external solutions. Raw data for all electrophysiology experiments are provided in Supplementary Data 3. Current-voltage (I-V) relationships were fit using Origin 7 (OriginLab) using a ninth order polynomial function to estimate the reversal potential (Vrev).
# (§3) Agonist-evoked membrane conductance (G) was calculated using the following equation: G=I/(V−Vrev)
# (§4) Conductance-voltage (G-V) relationships were fit using Origin 7 (OriginLab) with the single permeant blocker model as done previously[46]: G=Gmax/1+[Spm]/Kd Where Gmax is the maximal conductance, [Spm] is the internal Spm concentration, and Kd is the dissociation constant.
# (§5) Kd is defined as: Kd=koff+kperm/kon=sumofexitrates/bindingrate
# (§6) And redefined as: Kd=g*exp(V/h)+L*exp(V/k) Where h and k are voltage dependencies of g and L, respectively, and at 0 mV: g=koff/konandL=kperm/kon
# GluE1αA wt = GluE1αA wt (Trichoplax adhaerens, UniProt B3SAW0); details: for Normalized current (Inorm) GluE1αA wild type: single recordings and AVG
# Chain of GluE1αA wt (B3SAW0 1-341): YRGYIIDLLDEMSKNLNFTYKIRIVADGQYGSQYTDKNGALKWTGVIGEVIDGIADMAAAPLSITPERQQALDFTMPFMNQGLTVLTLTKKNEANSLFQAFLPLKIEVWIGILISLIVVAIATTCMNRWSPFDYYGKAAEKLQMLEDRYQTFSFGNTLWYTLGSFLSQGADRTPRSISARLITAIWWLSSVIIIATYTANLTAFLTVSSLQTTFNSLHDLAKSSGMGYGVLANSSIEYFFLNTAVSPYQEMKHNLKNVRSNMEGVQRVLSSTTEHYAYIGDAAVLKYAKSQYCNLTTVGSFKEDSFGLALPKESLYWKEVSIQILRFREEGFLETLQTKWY
# Description: as §1, §2, §3, §4, §5, §6
# GluE1αA S642Q [4] = target: T2, GluE1αA S642Q
# Description: as §1, §2, §3, §4, §5, §6
compound,measurement,setting,value
[Na+] [Na],pNa/pNa,GluE1αA S642N [1],1.08
same,"normalized conductance (G-V, Figure 5g), Avg",GluE1αA S642N [1]; Vm 0.00,0.09
same,"normalized conductance (G-V, Figure 5g), Avg",GluE1αA S642N [1]; Vm 20.00,0.06
same,"normalized conductance (G-V, Figure 5g), Avg",GluE1αA S642N [1]; Vm 40.00,0.14
same,"normalized conductance (G-V, Figure 5g), Avg",GluE1αA S642N [1]; Vm 60.00,0.27
same,"normalized conductance (G-V, Figure 5g), Avg",GluE1αA S642N [1]; Vm 80.00,0.34
same,"normalized conductance (G-V, Figure 5g), Avg",GluE1αA S642N [1]; Vm -20.00,0.24
same,"normalized conductance (G-V, Figure 5g), Avg",GluE1αA S642N [1]; Vm -40.00,0.49
same,"normalized conductance (G-V, Figure 5g), Avg",GluE1αA S642N [1]; Vm -60.00,0.76
same,"normalized conductance (G-V, Figure 5g), Avg",GluE1αA S642N [1]; Vm -80.00,1.00
same,"I-V current, Na vs Na, Avg of recordings",GluE1αA S642N [1]; Vm 0.00,-0.00109
same,"I-V current, Na vs Na, Avg of recordings",GluE1αA S642N [1]; Vm 20.00,0.0153
same,"I-V current, Na vs Na, Avg of recordings",GluE1αA S642N [1]; Vm 40.00,0.04
same,"I-V current, Na vs Na, Avg of recordings",GluE1αA S642N [1]; Vm 60.00,0.11
same,"I-V current, Na vs Na, Avg of recordings",GluE1αA S642N [1]; Vm 80.00,0.22
same,"I-V current, Na vs Na, Avg of recordings",GluE1αA S642N [1]; Vm -20.00,-0.0458
same,"I-V current, Na vs Na, Avg of recordings",GluE1αA S642N [1]; Vm -40.00,-0.16
same,"I-V current, Na vs Na, Avg of recordings",GluE1αA S642N [1]; Vm -60.00,-0.37
same,"I-V current, Na vs Na, Avg of recordings",GluE1αA S642N [1]; Vm -80.00,-0.64
same,"normalized conductance (G-V, Figure 5g), Avg",GluE1αA S642Q [2]; Vm 0.00,0.20
same,"normalized conductance (G-V, Figure 5g), Avg",GluE1αA S642Q [2]; Vm 20.00,0.25
same,"normalized conductance (G-V, Figure 5g), Avg",GluE1αA S642Q [2]; Vm 40.00,0.52
same,"normalized conductance (G-V, Figure 5g), Avg",GluE1αA S642Q [2]; Vm 60.00,0.72
same,"normalized conductance (G-V, Figure 5g), Avg",GluE1αA S642Q [2]; Vm 80.00,0.79
same,"normalized conductance (G-V, Figure 5g), Avg",GluE1αA S642Q [2]; Vm -20.00,0.51
same,"normalized conductance (G-V, Figure 5g), Avg",GluE1αA S642Q [2]; Vm -40.00,0.84
same,"normalized conductance (G-V, Figure 5g), Avg",GluE1αA S642Q [2]; Vm -60.00,0.93
same,"normalized conductance (G-V, Figure 5g), Avg",GluE1αA S642Q [2]; Vm -80.00,1.00
same,"I-V current, Na vs Na, Avg of recordings",GluE1αA S642Q [2]; Vm 0.00,0.0017
same,"I-V current, Na vs Na, Avg of recordings",GluE1αA S642Q [2]; Vm 20.00,0.0327
same,"I-V current, Na vs Na, Avg of recordings",GluE1αA S642Q [2]; Vm 40.00,0.13
same,"I-V current, Na vs Na, Avg of recordings",GluE1αA S642Q [2]; Vm 60.00,0.30
same,"I-V current, Na vs Na, Avg of recordings",GluE1αA S642Q [2]; Vm 80.00,0.51
same,"I-V current, Na vs Na, Avg of recordings",GluE1αA S642Q [2]; Vm -20.00,-0.07
same,"I-V current, Na vs Na, Avg of recordings",GluE1αA S642Q [2]; Vm -40.00,-0.26
same,"I-V current, Na vs Na, Avg of recordings",GluE1αA S642Q [2]; Vm -60.00,-0.50
same,"I-V current, Na vs Na, Avg of recordings",GluE1αA S642Q [2]; Vm -80.00,-0.73
NCCCNCCCCNCCCN [spermine],Normalized conductance (Gnorm),"GluE1αA S642N [3]; 0 mV, single recordings c1-c7, AVG c8",0.27 and 0.16 and 0.22
same,Normalized conductance (Gnorm),"GluE1αA S642N [3]; -80 mV, single recordings c1-c7, AVG c8",0.79
same,Normalized current (Inorm),"GluE1αA S642N [3]; -100 mV, single recordings c1-c7, AVG c8",-1.00
same,"h, voltage dependency of block onset",GluE1αA S642N [3]; GluE1αA S642N,−26.4 ± 1.3 mV
same,"k, voltage dependency of block relief",GluE1αA S642N [3]; GluE1αA S642N,34.9 ± 3.7 mV
same,Normalized current (Inorm) GluE1αA wild type,GluE1αA wt; 50 mV,0.16 and 0.13 and 0.0847
same,Normalized current (Inorm) GluE1αA wild type,GluE1αA wt; -100 mV,-1.00
same,"h, voltage dependency of block onset",GluE1αA wt; GluE1αA wt,−18.5 ± 0.6 mV
same,"k, voltage dependency of block relief",GluE1αA wt; GluE1αA wt,36.5 ± 4.7 mV
same,Normalized current (Inorm),"GluE1αA S642Q [4]; -100 mV, single recordings c1-c10, AVG c11",-1.00
same,"h, voltage dependency of block onset",GluE1αA S642Q [4]; GluE1αA S642Q,−15.3 ± 0.7 mV
same,"k, voltage dependency of block relief",GluE1αA S642Q [4]; GluE1αA S642Q,28.3 ± 2.1 mV

# From article PMC12226733, “Evolution of iGluR ligand specificity, polyamine regulation, and ion selectivity inferred from a placozoan epsilon receptor” (Communications Biology, 2025)
